{"source": "patent US20140271926A1", "about": "“METHODS OF USE OF GLUTAMINE SYNTHETASE INHIBITORS” (CALIFORNIA INSTITUTE OF TECHNOLOGY, priority 2013, published 2014)", "key": {"[1]": {"tested_on": "glutamine synthetase (GS)", "assay": "Western blot of endogenous GS level in MM.1S cells", "assay_type": "cell-based, human", "conditions": "for steady-state level of GS: MM.1S cells, 2 mM glutamine, FIG. 5", "experimental": "The consequences of IMiD-enhanced ubiquitylation of GS on endogenous GS levels and stability in MM.1S cells were evaluated. […] The IMiD-triggered decline in GS protein was not due to a reduction in the mRNA level of GS (FIGS. 5 and 6). If IMiDs were added immediately after changing the growth medium, the suppression of GS was more profound, with a maximal effect seen at 0.1 μM pomalidomide (4-amino-thalidomide) (FIG. 7). […] To determine if IMiDs were affecting the stability of GS, cycloheximide chase experiments were performed. As known in the art, GS is an unstable protein (FIG. 9). […] The lenalidomide-induced downregulation of GS was blocked by the proteasome inhibitor MG132 (FIG. 11). Additionally, the lenalidomide-induced downregulation of GS was blunted upon depletion of CRBN by shRNA (FIG. 12).\nWestern blot analysis. […] After washing twice with ice-cold PBS, the cells were lysed in RIPA buffer (50 mM Tris-HCl, 150 mM NaCl, 1% Triton X-100, 1% Sodium deoxycholate, 0.1% SDS, [pH 7.5]) supplemented with complete protease inhibitor (Roche). Whole-cell protein extracts were prepared and quantified by the Bradford method (Bio-Rad, Hercules, Calif.). Equal amounts of protein (20-80 μg/lane) were electrophoretically separated on SDS-PAGE and transferred to a PVDF membrane. The membranes were blotted with indicated antibodies. Anti-rabbit or anti-mouse antibodies conjugated to horseradish peroxidase (Vector Labs) were used as secondary antibodies, and the signal was detected using a Super Signal West Pico Substrate kit (Fisher Scientific)."}, "endogenous GS": {"tested_on": "endogenous GS", "assay": "TUBE2 pull-down of ubiquitin conjugates, HEK293T cells", "assay_type": "cell-based, human", "conditions": "3 hours, FIG. 4; for GS ubiquitin conjugates: lenalidomide 30 μM or MG132 10 μM", "experimental": "TUBE (Tandem Ubiquitin Binding Entities) Pull-down. […] The cells were lysed in immunoprecipitation buffer (10 mM Tris [pH 7.5], 150 mM NaCl, 1% Triton X-100) containing a protease inhibitor cocktail, MG132 and 10 mM N-ethylmaleimide (NEM, Sigma). Whole-cell protein extracts were incubated with 20 μl of TUBE2 agarose beads (Boston Biochem) for 2-4 hours with rotation at 4° C. Beads were washed 3-5 times with lysis buffer, and bound proteins were eluted in SDS sample buffer and subjected to Western blot analysis."}, "FlagGS": {"tested_on": "FlagGS", "assay": "In vivo ubiquitylation assay of FlagGS in HEK293T cells", "assay_type": "cell-based, human", "conditions": "MG132 10 μM 3 hours, FIG. 13A", "text": "As mentioned above, GS is moderately unstable even in the absence of IMiDs. Specifically, seven lysine residues of GS are modified with ubiquitin in proteasome-inhibited cells, and modification of five of these sites is reduced upon inhibition of CRL activity with the NEDD8 conjugation inhibitor MLN4924. (Kim et al., 2011, Mol Cell., 44:325 and Emanuele et al., 2011, Cell, 147:459, the entire contents of both of which are herein incorporated by reference.) As such, the idea that the constitutive ubiquitylation and degradation of GS may be dependent on CRL4^CRBN was tested. In co-transfection assays, ^HAubiquitin was incorporated into ^FlagGS as determined by immunoprecipitation of ^FlagGS followed by immunoblotting with anti-HA (FIG. 13A). Additionally, ubiquitin-modified ^FlagGS accumulated in cells in which the proteasome was inhibited with the proteasome inhibitor MG132, but was almost entirely absent upon depletion of endogenous CRBN (depletion of CRBN was confirmed by immunoblot; FIG. 13B). […]\nIn vivo ubiquitylation assay. […] IP washing steps were performed using IP lysis buffer supplemented with 0.5 M NaCl Immunoprecipitated proteins were resolved by SDS/PAGE and analyzed by immunoblotting."}, "GS": {"tested_on": "GS", "conditions": "five of seven ubiquitin-modified lysine sites; proteasome-inhibited cells; cited from earlier work"}, "[2]": {"conditions": "clinical; cited from earlier work"}, "MM.1S cells": {"tested_on": "MM.1S cells", "assay": "Immunoblot of apoptosis biomarkers (cleaved caspase-3, PARP) in MM.1S cells", "assay_type": "cell-based, human", "conditions": "low concentrations of pomalidomide; 0.5 mM glutamine 72 hours; FIG. 26", "experimental": "Since the physiological concentration of glutamine in human plasma is 0.5 mM (not the 2 mM that is typically used in cell cultures), the impact of GS depletion on cells grown in 0.5 mM glutamine was evaluated. Cells transduced with GS shRNA-3 in 2 mM glutamine for 7 days and then the cells were shifted to 0.5 mM glutamine.\nIf IMiDs modulate the level of multiple proteins that are critical for proliferation of myeloma cells, then restoring any one protein would not be expected to allow proliferation in the presence of IMiDs. By contrast, it was reasoned that if degradation of GS contributes to the anti-myeloma effect of IMiDs, that reduction of GS levels by shRNA knockdown would enhance the effect of IMiDs at sub-saturating concentrations, resulting in enhanced efficacy. […]\nWestern blot analysis. […] Whole-cell protein extracts were prepared and quantified by the Bradford method (Bio-Rad, Hercules, Calif.). […] Anti-rabbit or anti-mouse antibodies conjugated to horseradish peroxidase (Vector Labs) were used as secondary antibodies, and the signal was detected using a Super Signal West Pico Substrate kit (Fisher Scientific)."}}, "note": "Residues, ends and D or L forms follow the SMILES beside them. *: point of attachment. Cbz = O=C(OCc1ccccc1)*", "data": [{"compound": "Nc1ccc2c(c1)C(=O)N(C1CCC(=O)NC1=O)C2=O", "note": "(stereo not shown) [5-amino-thalidomide]", "values": [{"measurement": "effect on GS protein levels", "setting": "[1]; MM.1S, FIG. 7", "result": "no effect"}]}, {"compound": "CC(C)C[C@@H](C=O)NC(=O)[C@H](CC(C)C)NC(=O)[C@H](CC(C)C)NC(=O)OCc1ccccc1", "note": "[MG132] (Cbz-Leu-Leu-Leu-aldehyde)", "values": [{"measurement": "GS ubiquitin conjugates", "setting": "endogenous GS", "result": "increase"}, {"measurement": "lenalidomide-induced downregulation of GS in presence of proteasome inhibitor", "setting": "[1]; MM.1S, 0.5 μM MG132, 100 μM lenalidomide, FIG. 11", "result": "blocked"}, {"measurement": "ubiquitin-modified FlagGS", "setting": "FlagGS", "result": "accumulated"}]}, {"compound": "NS(=O)(=O)OC[C@@H]1C[C@@H](n2ccc3c(N[C@H]4CCc5ccccc54)ncnc32)C[C@@H]1O", "note": "[MLN4924]", "values": [{"measurement": "ubiquitin modification of GS lysine residues", "setting": "GS", "result": "reduced"}]}, {"compound": "Nc1cccc2c1CN(C1CCC(=O)NC1=O)C2=O", "note": "(stereo not shown) [lenalidomide]", "values": [{"measurement": "total cellular pool of ubiquitin conjugates", "setting": "endogenous GS; 30 μM", "result": "essentially no effect"}, {"measurement": "GS ubiquitin conjugates", "setting": "endogenous GS", "result": "increase"}, {"measurement": "steady-state level of GS", "setting": "[1]; 24 hours", "result": "marked, dose-dependent reduction"}, {"measurement": "time to substantial reduction of GS", "setting": "[1]; MM.1S, 100 μM lenalidomide, FIG. 8", "result": "≤ 4", "unit": "h"}, {"measurement": "lenalidomide-induced downregulation of GS upon depletion of CRBN by shRNA", "setting": "[1]; MM.1S, 24 hours, FIG. 12", "result": "blunted"}, {"measurement": "Cmax", "setting": "[2]", "result": "~1500", "unit": "nM"}]}, {"compound": "Nc1cccc2c1C(=O)N(C1CCC(=O)NC1=O)C2=O", "note": "(stereo not shown) [pomalidomide, 4-amino-thalidomide]", "values": [{"measurement": "steady-state level of GS", "setting": "[1]; 24 hours", "result": "marked, dose-dependent reduction"}, {"measurement": "concentration giving maximal suppression of GS", "setting": "[1]; MM.1S, IMiDs added immediately after changing the growth medium, FIG. 7", "result": 0.1, "unit": "µM"}, {"measurement": "PARP cleavage in GS-depleted cells", "setting": "MM.1S cells", "result": "further accentuated"}, {"measurement": "PARP cleavage in non-depleted cells", "setting": "MM.1S cells", "result": "no effect"}, {"measurement": "Cmax", "setting": "[2]", "result": "~275", "unit": "nM"}]}]}
